Key:
Assay in all cases: KINOMEscan competition binding
Conditions in all cases: compound 10.0 µM
ACVR1B (human) = ACVR1B (human) (UniProt P36896)
ADCK4 (human) = ADCK4 (human) (UniProt Q96D53)
CAMK1G (human) = CAMK1G (human) (UniProt Q96NX5)
CDC42BPA (human) = CDC42BPA (human) (UniProt Q5VT25)
CDK8 (human) = CDK8 (human) (UniProt P49336)
CHUK (human) = CHUK (human) (UniProt O15111)
CIT (human) = CIT (human) (UniProt O14578)
CSNK1A1L (human) = CSNK1A1L (human) (UniProt Q8N752)
CSNK2A1 (human) = CSNK2A1 (human) (UniProt P68400)
EPHB2 (human) = EPHB2 (human) (UniProt P29323)
FER (human) = FER (human) (UniProt P16591)
FGR (human) = FGR (human) (UniProt P09769)
FRK (human) = FRK (human) (UniProt P42685)
Sequence of FRK (human) (P42685 whole entry, looked up): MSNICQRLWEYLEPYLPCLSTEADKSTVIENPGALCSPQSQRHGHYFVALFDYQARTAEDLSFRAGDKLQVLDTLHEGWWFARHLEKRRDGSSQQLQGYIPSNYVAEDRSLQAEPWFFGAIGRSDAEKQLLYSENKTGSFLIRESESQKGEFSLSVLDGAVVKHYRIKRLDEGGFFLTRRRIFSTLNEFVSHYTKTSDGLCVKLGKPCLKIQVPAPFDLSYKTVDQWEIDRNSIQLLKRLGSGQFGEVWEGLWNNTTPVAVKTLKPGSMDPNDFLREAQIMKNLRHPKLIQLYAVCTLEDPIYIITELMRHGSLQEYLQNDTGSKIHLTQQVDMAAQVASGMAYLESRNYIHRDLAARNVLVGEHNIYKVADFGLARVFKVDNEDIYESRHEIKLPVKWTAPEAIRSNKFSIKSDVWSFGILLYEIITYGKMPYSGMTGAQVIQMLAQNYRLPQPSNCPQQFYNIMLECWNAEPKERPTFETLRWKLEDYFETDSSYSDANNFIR

GSK3B (human) = GSK3B (human) (UniProt P49841)
ICK (human) = ICK (human) (UniProt Q9UPZ9)
[1] = tested on: KIT (human), P10721 [D816H]
MAP2K1 (human) = MAP2K1 (human) (UniProt Q02750)
MAP3K9 (human) = MAP3K9 (human) (UniProt P80192)
MUSK (human) = MUSK (human) (UniProt O15146)
MYLK2 (human) = MYLK2 (human) (UniProt Q9H1R3)
Sequence of MYLK2 (human) (Q9H1R3 whole entry, looked up): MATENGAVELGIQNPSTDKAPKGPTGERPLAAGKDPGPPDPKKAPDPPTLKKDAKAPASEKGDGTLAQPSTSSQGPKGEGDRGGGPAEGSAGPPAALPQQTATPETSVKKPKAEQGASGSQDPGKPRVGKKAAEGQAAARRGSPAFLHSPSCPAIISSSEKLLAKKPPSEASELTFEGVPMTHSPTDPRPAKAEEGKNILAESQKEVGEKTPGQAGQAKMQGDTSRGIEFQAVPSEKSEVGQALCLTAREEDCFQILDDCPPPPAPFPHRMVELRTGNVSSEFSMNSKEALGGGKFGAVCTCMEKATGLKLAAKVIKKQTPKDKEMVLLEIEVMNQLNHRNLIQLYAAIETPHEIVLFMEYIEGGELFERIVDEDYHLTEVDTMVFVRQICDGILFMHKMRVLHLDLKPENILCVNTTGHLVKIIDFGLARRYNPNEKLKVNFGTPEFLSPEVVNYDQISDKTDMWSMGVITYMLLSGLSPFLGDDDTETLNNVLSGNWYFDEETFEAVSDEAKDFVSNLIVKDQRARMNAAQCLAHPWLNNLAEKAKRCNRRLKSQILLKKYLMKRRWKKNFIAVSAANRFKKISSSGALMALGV

NEK7 (human) = NEK7 (human) (UniProt Q8TDX7)
NTRK1 (human) = NTRK1 (human) (UniProt P04629)
NTRK3 (human) = NTRK3 (human) (UniProt Q16288)
NUAK1 (human) = NUAK1 (human) (UniProt O60285)
PAK1 (human) = PAK1 (human) (UniProt Q13153)
PHKG1 (human) = PHKG1 (human) (UniProt Q16816)
PIK3CA (human) = PIK3CA (human) (UniProt P42336)
Sequence of PIK3CA (human) (P42336 whole entry, looked up): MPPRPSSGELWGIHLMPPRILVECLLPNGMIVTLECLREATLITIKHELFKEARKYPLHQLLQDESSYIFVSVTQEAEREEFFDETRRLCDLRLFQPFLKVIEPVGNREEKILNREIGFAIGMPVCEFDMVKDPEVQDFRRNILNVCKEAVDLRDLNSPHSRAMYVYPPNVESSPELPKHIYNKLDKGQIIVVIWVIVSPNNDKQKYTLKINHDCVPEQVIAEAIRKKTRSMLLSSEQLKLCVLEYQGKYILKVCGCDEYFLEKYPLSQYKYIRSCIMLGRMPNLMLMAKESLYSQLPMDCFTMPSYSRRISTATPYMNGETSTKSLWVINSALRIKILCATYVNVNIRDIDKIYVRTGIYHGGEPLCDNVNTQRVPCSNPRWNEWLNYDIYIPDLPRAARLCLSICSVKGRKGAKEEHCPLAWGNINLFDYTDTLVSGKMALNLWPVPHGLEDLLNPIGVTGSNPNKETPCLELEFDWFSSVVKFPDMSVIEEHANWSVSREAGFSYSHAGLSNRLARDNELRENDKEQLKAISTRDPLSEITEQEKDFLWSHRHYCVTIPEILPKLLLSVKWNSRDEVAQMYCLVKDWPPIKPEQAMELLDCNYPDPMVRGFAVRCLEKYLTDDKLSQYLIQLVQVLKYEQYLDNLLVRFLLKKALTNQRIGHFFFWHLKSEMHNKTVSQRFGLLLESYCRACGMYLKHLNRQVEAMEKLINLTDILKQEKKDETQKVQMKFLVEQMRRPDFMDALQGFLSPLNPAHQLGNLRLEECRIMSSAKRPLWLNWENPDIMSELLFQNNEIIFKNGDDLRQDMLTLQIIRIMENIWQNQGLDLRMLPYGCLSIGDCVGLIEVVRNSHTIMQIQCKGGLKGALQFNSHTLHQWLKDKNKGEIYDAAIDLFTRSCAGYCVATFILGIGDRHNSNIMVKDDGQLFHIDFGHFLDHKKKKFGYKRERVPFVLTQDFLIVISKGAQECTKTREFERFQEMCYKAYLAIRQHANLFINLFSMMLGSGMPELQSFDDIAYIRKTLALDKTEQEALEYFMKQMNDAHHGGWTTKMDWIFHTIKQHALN

PLK1 (human) = PLK1 (human) (UniProt P53350)
PLK3 (human) = PLK3 (human) (UniProt Q9H4B4)
ROCK2 (human) = ROCK2 (human) (UniProt O75116)
ROS1 (human) = ROS1 (human) (UniProt P08922)
RPS6KA2 KD2 (human) = RPS6KA2 KD2 (human) (UniProt Q15349)
STK25 (human) = STK25 (human) (UniProt O00506)
STK32B (human) = STK32B (human) (UniProt Q9NY57)
STK33 (human) = STK33 (human) (UniProt Q9BYT3)
STK4 (human) = STK4 (human) (UniProt Q13043)
Sequence of STK4 (human) (Q13043 whole entry, looked up): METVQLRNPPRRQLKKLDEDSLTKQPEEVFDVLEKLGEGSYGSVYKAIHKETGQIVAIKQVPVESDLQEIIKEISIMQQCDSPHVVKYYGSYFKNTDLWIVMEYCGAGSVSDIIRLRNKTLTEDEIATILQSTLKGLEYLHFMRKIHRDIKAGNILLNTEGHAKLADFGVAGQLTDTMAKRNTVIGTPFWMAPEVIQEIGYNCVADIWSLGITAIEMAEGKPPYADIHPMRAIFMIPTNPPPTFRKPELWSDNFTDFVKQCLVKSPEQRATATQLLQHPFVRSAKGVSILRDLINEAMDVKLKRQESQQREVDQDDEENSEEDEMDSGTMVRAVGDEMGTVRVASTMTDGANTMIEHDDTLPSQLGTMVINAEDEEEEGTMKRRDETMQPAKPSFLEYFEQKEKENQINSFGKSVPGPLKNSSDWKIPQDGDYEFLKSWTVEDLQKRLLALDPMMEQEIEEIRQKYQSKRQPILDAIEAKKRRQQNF

TBK1 (human) = TBK1 (human) (UniProt Q9UHD2)
TSSK1B (human) = TSSK1B (human) (UniProt Q9BXA7)
[2] = biological target: TYK2 JH2 pseudokinase (human) (UniProt P29597)
CDK16 (human) = CDK16 (human) (UniProt Q00536)

Sequence of CDK8 (human) (P49336 whole entry, looked up): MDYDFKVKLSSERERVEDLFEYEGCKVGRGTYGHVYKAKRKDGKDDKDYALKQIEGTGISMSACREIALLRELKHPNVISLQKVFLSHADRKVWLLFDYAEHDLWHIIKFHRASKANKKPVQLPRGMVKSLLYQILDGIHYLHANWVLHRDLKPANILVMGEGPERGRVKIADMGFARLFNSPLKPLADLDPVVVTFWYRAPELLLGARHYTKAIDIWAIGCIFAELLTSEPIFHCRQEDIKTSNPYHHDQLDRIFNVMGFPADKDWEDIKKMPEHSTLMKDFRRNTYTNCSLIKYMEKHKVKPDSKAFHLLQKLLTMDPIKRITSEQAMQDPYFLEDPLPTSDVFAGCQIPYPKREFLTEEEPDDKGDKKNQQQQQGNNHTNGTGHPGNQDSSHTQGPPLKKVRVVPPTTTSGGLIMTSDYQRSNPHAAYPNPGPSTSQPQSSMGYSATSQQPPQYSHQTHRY
Sequence of CDC42BPA (human) (Q5VT25 whole entry, looked up): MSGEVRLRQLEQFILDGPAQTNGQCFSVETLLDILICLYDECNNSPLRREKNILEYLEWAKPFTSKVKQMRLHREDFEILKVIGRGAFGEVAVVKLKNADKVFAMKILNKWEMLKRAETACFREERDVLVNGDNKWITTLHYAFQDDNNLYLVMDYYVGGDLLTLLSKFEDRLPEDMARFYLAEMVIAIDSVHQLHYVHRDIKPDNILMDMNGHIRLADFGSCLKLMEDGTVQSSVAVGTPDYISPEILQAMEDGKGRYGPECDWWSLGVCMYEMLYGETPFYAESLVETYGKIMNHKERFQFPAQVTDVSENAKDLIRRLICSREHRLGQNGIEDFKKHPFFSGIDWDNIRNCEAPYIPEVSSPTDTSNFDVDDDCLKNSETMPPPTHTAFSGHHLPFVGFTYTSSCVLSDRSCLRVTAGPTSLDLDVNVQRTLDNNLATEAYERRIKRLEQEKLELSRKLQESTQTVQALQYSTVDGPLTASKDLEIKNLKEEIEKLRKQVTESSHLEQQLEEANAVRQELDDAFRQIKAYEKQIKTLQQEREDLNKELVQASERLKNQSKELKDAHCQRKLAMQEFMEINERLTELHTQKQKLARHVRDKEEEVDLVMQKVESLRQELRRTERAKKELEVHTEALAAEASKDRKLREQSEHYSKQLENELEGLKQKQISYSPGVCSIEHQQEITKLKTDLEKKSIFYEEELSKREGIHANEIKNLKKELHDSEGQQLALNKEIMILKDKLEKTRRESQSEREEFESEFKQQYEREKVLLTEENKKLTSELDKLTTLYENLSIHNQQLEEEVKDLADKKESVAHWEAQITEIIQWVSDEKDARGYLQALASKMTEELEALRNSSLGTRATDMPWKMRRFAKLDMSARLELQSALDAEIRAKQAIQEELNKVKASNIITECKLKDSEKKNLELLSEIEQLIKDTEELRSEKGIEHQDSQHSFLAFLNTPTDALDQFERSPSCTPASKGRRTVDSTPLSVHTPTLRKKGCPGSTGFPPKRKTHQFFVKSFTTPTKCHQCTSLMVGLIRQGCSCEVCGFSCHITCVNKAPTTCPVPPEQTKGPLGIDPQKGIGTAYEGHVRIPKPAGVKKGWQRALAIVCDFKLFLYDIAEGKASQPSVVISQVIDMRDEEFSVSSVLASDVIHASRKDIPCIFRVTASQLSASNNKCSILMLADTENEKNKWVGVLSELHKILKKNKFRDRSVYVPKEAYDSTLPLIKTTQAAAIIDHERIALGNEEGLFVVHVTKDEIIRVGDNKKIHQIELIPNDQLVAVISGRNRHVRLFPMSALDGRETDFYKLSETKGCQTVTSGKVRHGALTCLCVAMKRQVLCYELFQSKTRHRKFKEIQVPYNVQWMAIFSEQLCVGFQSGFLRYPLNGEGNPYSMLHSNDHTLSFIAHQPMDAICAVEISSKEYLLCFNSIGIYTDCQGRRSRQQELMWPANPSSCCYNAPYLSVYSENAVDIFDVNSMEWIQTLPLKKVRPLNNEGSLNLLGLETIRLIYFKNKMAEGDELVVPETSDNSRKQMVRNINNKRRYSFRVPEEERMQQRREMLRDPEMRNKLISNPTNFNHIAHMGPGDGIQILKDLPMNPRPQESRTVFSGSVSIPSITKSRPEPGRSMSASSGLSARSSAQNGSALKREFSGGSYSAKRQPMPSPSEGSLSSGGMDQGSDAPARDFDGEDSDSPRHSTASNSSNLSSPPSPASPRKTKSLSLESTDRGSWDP

Question: Which kinase still bound, per cent of control (ACVR1B (human)) does the source give for `CCN(CCO)CCCOc1ccc2c(Nc3cc(CC(=O)Nc4cccc(F)c4)[nH]n3)ncnc2c1` here?
Answer: 88%

Question: What about the kinase still bound, per cent of control (ADCK4 (human)) of the same molecule?
Answer: 83%

Question: What about the kinase still bound, per cent of control (CAMK1G (human)) of the same molecule?
Answer: 73%

Question: And the kinase still bound, per cent of control (CDC42BPA (human))?
Answer: 100%

Question: And the kinase still bound, per cent of control (CDK8 (human))?
Answer: 75%

Question: What about the kinase still bound, per cent of control (CHUK (human)) of the same molecule?
Answer: 100%

Question: And the kinase still bound, per cent of control (CIT (human))?
Answer: 27%

Question: And the kinase still bound, per cent of control (CSNK1A1L (human))?
Answer: 99%

Question: And the kinase still bound, per cent of control (CSNK2A1 (human))?
Answer: 84%

Question: What about the kinase still bound, per cent of control (EPHB2 (human)) of the same molecule?
Answer: 93%

Question: What about the kinase still bound, per cent of control (FER (human)) of the same molecule?
Answer: 100%

Question: And the kinase still bound, per cent of control (FGR (human))?
Answer: 82%

Question: What about the kinase still bound, per cent of control (FRK (human)) of the same molecule?
Answer: 90%

Question: And the kinase still bound, per cent of control (GSK3B (human))?
Answer: 100%

Question: And the kinase still bound, per cent of control (ICK (human))?
Answer: 74%

Question: What about the kinase still bound, per cent of control [1] of the same molecule?
Answer: 34%

Question: And the kinase still bound, per cent of control (MAP2K1 (human))?
Answer: 32%

Question: And the kinase still bound, per cent of control (MAP3K9 (human))?
Answer: 98%

Question: What about the kinase still bound, per cent of control (MUSK (human)) of the same molecule?
Answer: 3.3%

Question: And the kinase still bound, per cent of control (MYLK2 (human))?
Answer: 87%

Question: And the kinase still bound, per cent of control (NEK7 (human))?
Answer: 94%

Question: And the kinase still bound, per cent of control (NTRK1 (human))?
Answer: 6.8%

Question: And the kinase still bound, per cent of control (NTRK3 (human))?
Answer: 56%

Question: And the kinase still bound, per cent of control (NUAK1 (human))?
Answer: 60%

Question: And the kinase still bound, per cent of control (PAK1 (human))?
Answer: 100%

Question: What about the kinase still bound, per cent of control (PHKG1 (human)) of the same molecule?
Answer: 35%

Question: And the kinase still bound, per cent of control (PIK3CA (human))?
Answer: 100%

Question: What about the kinase still bound, per cent of control (PLK1 (human)) of the same molecule?
Answer: 100%

Question: What about the kinase still bound, per cent of control (PLK3 (human)) of the same molecule?
Answer: 89%

Question: And the kinase still bound, per cent of control (ROCK2 (human))?
Answer: 66%

Question: What about the kinase still bound, per cent of control (ROS1 (human)) of the same molecule?
Answer: 100%

Question: And the kinase still bound, per cent of control (RPS6KA2 KD2 (human))?
Answer: 77%

Question: What about the kinase still bound, per cent of control (STK25 (human)) of the same molecule?
Answer: 66%

Question: What about the kinase still bound, per cent of control (STK32B (human)) of the same molecule?
Answer: 100%

Question: What about the kinase still bound, per cent of control (STK33 (human)) of the same molecule?
Answer: 51%

Question: What about the kinase still bound, per cent of control (STK4 (human)) of the same molecule?
Answer: 40%

Question: And the kinase still bound, per cent of control (TBK1 (human))?
Answer: 90%

Question: And the kinase still bound, per cent of control (TSSK1B (human))?
Answer: 87%

Question: And the kinase still bound, per cent of control [2]?
Answer: 98%

Question: `Cc1cn(-c2cc(C(=O)Nc3ccc(C)c(NC(=O)c4ccno4)c3)cc(C(F)(F)F)c2)cn1` was tested. Which kinase still bound, per cent of control (ACVR1B (human)) did it give?
Answer: 100%

Question: What about the kinase still bound, per cent of control (ADCK4 (human)) of the same molecule?
Answer: 100%

Question: What about the kinase still bound, per cent of control (CAMK1G (human)) of the same molecule?
Answer: 100%

Question: And the kinase still bound, per cent of control (CDC42BPA (human))?
Answer: 100%

Question: And the kinase still bound, per cent of control (CDK16 (human))?
Answer: 100%

Question: And the kinase still bound, per cent of control (CDK8 (human))?
Answer: 100%

Question: And the kinase still bound, per cent of control (CHUK (human))?
Answer: 100%

Question: And the kinase still bound, per cent of control (CIT (human))?
Answer: 31%

Question: What about the kinase still bound, per cent of control (CSNK1A1L (human)) of the same molecule?
Answer: 100%

Question: And the kinase still bound, per cent of control (CSNK2A1 (human))?
Answer: 100%

Question: And the kinase still bound, per cent of control (EPHB2 (human))?
Answer: 9%

Question: And the kinase still bound, per cent of control (FER (human))?
Answer: 100%

Question: What about the kinase still bound, per cent of control (FGR (human)) of the same molecule?
Answer: 23%

Question: What about the kinase still bound, per cent of control (FRK (human)) of the same molecule?
Answer: 0.85%

Question: What about the kinase still bound, per cent of control (GSK3B (human)) of the same molecule?
Answer: 100%

Question: And the kinase still bound, per cent of control (ICK (human))?
Answer: 100%

Question: What about the kinase still bound, per cent of control (MAP2K1 (human)) of the same molecule?
Answer: 100%

Question: What about the kinase still bound, per cent of control (MAP3K9 (human)) of the same molecule?
Answer: 100%

Question: What about the kinase still bound, per cent of control (MUSK (human)) of the same molecule?
Answer: 100%

Question: What about the kinase still bound, per cent of control (MYLK2 (human)) of the same molecule?
Answer: 100%

Question: And the kinase still bound, per cent of control (NEK7 (human))?
Answer: 100%

Question: And the kinase still bound, per cent of control (NTRK1 (human))?
Answer: 100%

Question: And the kinase still bound, per cent of control (NTRK3 (human))?
Answer: 100%

Question: And the kinase still bound, per cent of control (NUAK1 (human))?
Answer: 100%

Question: And the kinase still bound, per cent of control (PAK1 (human))?
Answer: 100%

Question: And the kinase still bound, per cent of control (PHKG1 (human))?
Answer: 100%

Question: And the kinase still bound, per cent of control (PIK3CA (human))?
Answer: 100%

Question: And the kinase still bound, per cent of control (PLK1 (human))?
Answer: 100%

Question: And the kinase still bound, per cent of control (PLK3 (human))?
Answer: 100%

Question: And the kinase still bound, per cent of control (ROCK2 (human))?
Answer: 100%

Question: And the kinase still bound, per cent of control (ROS1 (human))?
Answer: 100%

Question: What about the kinase still bound, per cent of control (RPS6KA2 KD2 (human)) of the same molecule?
Answer: 100%

Question: And the kinase still bound, per cent of control (STK25 (human))?
Answer: 100%

Question: What about the kinase still bound, per cent of control (STK32B (human)) of the same molecule?
Answer: 100%

Question: What about the kinase still bound, per cent of control (STK33 (human)) of the same molecule?
Answer: 100%

Question: What about the kinase still bound, per cent of control (STK4 (human)) of the same molecule?
Answer: 100%

Question: What about the kinase still bound, per cent of control (TBK1 (human)) of the same molecule?
Answer: 100%

Question: And the kinase still bound, per cent of control (TSSK1B (human))?
Answer: 100%

Question: And the kinase still bound, per cent of control [2]?
Answer: 100%

Question: For `CCOc1cc(N2CCC(O)CC2)ccc1Nc1ncc2c(n1)N(C)c1ccccc1C(=O)N2C`, which kinase still bound, per cent of control (ACVR1B (human)) is on record?
Answer: 100%

Question: What about the kinase still bound, per cent of control (ADCK4 (human)) of the same molecule?
Answer: 100%

Question: What about the kinase still bound, per cent of control (CAMK1G (human)) of the same molecule?
Answer: 100%

Question: And the kinase still bound, per cent of control (CDC42BPA (human))?
Answer: 100%

Question: What about the kinase still bound, per cent of control (CDK16 (human)) of the same molecule?
Answer: 100%

Question: And the kinase still bound, per cent of control (CDK8 (human))?
Answer: 100%

Question: And the kinase still bound, per cent of control (CHUK (human))?
Answer: 100%

Question: And the kinase still bound, per cent of control (CIT (human))?
Answer: 100%

Question: And the kinase still bound, per cent of control (CSNK1A1L (human))?
Answer: 100%

Question: What about the kinase still bound, per cent of control (CSNK2A1 (human)) of the same molecule?
Answer: 100%

Question: And the kinase still bound, per cent of control (EPHB2 (human))?
Answer: 100%

Question: And the kinase still bound, per cent of control (FER (human))?
Answer: 100%

Question: And the kinase still bound, per cent of control (FGR (human))?
Answer: 100%

Question: What about the kinase still bound, per cent of control (FRK (human)) of the same molecule?
Answer: 100%

Question: And the kinase still bound, per cent of control (GSK3B (human))?
Answer: 100%

Question: And the kinase still bound, per cent of control (ICK (human))?
Answer: 100%

Question: And the kinase still bound, per cent of control (MAP2K1 (human))?
Answer: 100%

Question: And the kinase still bound, per cent of control (MAP3K9 (human))?
Answer: 100%

Question: And the kinase still bound, per cent of control (MUSK (human))?
Answer: 100%

Question: What about the kinase still bound, per cent of control (MYLK2 (human)) of the same molecule?
Answer: 100%

Question: And the kinase still bound, per cent of control (NEK7 (human))?
Answer: 100%

Question: What about the kinase still bound, per cent of control (NTRK1 (human)) of the same molecule?
Answer: 100%

Question: And the kinase still bound, per cent of control (NTRK3 (human))?
Answer: 100%

Question: And the kinase still bound, per cent of control (NUAK1 (human))?
Answer: 100%

Question: And the kinase still bound, per cent of control (PAK1 (human))?
Answer: 100%

Question: What about the kinase still bound, per cent of control (PHKG1 (human)) of the same molecule?
Answer: 100%

Question: And the kinase still bound, per cent of control (PIK3CA (human))?
Answer: 100%

Question: What about the kinase still bound, per cent of control (PLK1 (human)) of the same molecule?
Answer: 100%

Question: What about the kinase still bound, per cent of control (PLK3 (human)) of the same molecule?
Answer: 100%

Question: What about the kinase still bound, per cent of control (ROCK2 (human)) of the same molecule?
Answer: 100%

Question: And the kinase still bound, per cent of control (ROS1 (human))?
Answer: 15%

Question: What about the kinase still bound, per cent of control (RPS6KA2 KD2 (human)) of the same molecule?
Answer: 100%

Question: And the kinase still bound, per cent of control (STK25 (human))?
Answer: 100%

Question: And the kinase still bound, per cent of control (STK32B (human))?
Answer: 100%

Question: And the kinase still bound, per cent of control (STK33 (human))?
Answer: 100%

Question: What about the kinase still bound, per cent of control (STK4 (human)) of the same molecule?
Answer: 100%

Question: What about the kinase still bound, per cent of control (TBK1 (human)) of the same molecule?
Answer: 100%

Question: And the kinase still bound, per cent of control (TSSK1B (human))?
Answer: 100%

Question: And the kinase still bound, per cent of control [2]?
Answer: 100%
